ChEMBL document CHEMBL1201862, “PubChem BioAssay data set” (2004)
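Results reflect a 48-hour exposure of cells in 96-well plates to compound at five concentrations. Here, GI50 denotes the concentration required for 50% inhibition of growth.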 Active and inactive are the calls of the source. Rule as the data show it: active = GI50 up to about 1.1 µM and inactive = higher.

Legend:
Assay in all cases: NCI anticancer screen, dose series, 48 h
[1] = test system: SR
[2] = test system: HCT-15
[3] = test system: NCI-H522
[4] = test system: CAKI-1
[5] = test system: UACC-257
[6] = test system: KM12
[7] = test system: SK-OV-3
[8] = test system: MDA-MB-435
[9] = test system: RXF 393
[10] = test system: SF-539
[11] = test system: ACHN
[12] = test system: MOLT-4
[13] = test system: OVCAR-5
[14] = test system: OVCAR-3
[15] = test system: HL-60
[16] = test system: LOX IMVI
[17] = test system: SF-268
[18] = test system: TK-10
[19] = test system: DU-145
[20] = test system: COLO 205

Row | SMILES | GI50 [1] | GI50 [2] [µM] | GI50 [3] | GI50 [4] | GI50 [5] | GI50 [6] | GI50 [7] | GI50 [8] | GI50 [9] | GI50 [10] | GI50 [11] | GI50 [12] | GI50 [13] | GI50 [14] | GI50 [15] | GI50 [16] | GI50 [17] | GI50 [18] | GI50 [19] | GI50 [20]
1 | O=C(/C=C/c1ccc(O)c(O)c1O)OCCc1ccccc1 | 15.8 µM (inactive) | 23.4 | 27.9 µM (inactive) | > 100 µM (inactive) | > 100 µM (inactive) | 28.9 µM (inactive) | 90.8 µM (inactive) | 17.5 µM (inactive) | 36.1 µM (inactive) | 37.3 µM (inactive) | 39.2 µM (inactive) | 23.6 µM (inactive) | 41.9 µM (inactive) | 21.6 µM (inactive) | 22 µM (inactive) | 15.2 µM (inactive) | 32.1 µM (inactive) | 83.2 µM (inactive) | > 100 µM (inactive) | 27.8 µM (inactive)
2 | Cc1nc(N)sc1C(=O)Nc1nc[nH]n1 | 14.1 µM (inactive) | > 100 | > 100 µM (inactive) | > 100 µM (inactive) | > 100 µM (inactive) | > 100 µM (inactive) | > 100 µM (inactive) | > 100 µM (inactive) | > 100 µM (inactive) | > 100 µM (inactive) | > 100 µM (inactive) | 52.1 µM (inactive) | > 100 µM (inactive) | > 100 µM (inactive) | 13.3 µM (inactive) | > 100 µM (inactive) | > 100 µM (inactive) | > 100 µM (inactive) | > 100 µM (inactive) | > 100 µM (inactive)
3 | COC1=CC(=O)c2c(cc(COP(=O)(N(C)CCBr)N(C)CCBr)n2C)C1=O | < 0.01 µM (active) | 0.491 | 0.281 µM (active) | < 0.0182 µM (active) | 2.7 µM (inactive) | 4.04 µM (inactive) | 0.918 µM (active) | 1.09 µM (active) | 0.229 µM (active) | < 0.0178 µM (active) | < 0.0108 µM (active) | < 0.0173 µM (active) | 0.583 µM (active) | 2.16 µM (inactive) | 0.0543 µM (active) | < 0.0238 µM (active) | 0.183 µM (active) | 0.247 µM (active) | < 0.0235 µM (active) | 0.865 µM (active)
4 | O=C(CC1(O)C(=O)Nc2c(Cl)cc(Cl)cc21)c1ccc(Br)cc1Br (stereo not drawn) | 1.56 µM (inactive) | 8.57 | 2.89 µM (inactive) | 4.24 µM (inactive) | 10.7 µM (inactive) | 12.9 µM (inactive) | 21.5 µM (inactive) | 12.8 µM (inactive) | 11.7 µM (inactive) | 14.6 µM (inactive) | 14.1 µM (inactive) | 1.32 µM (inactive) | 17.7 µM (inactive) | 18.7 µM (inactive) | 1.04 µM (active) | 5.19 µM (inactive) | 8.17 µM (inactive) | 18.1 µM (inactive) | 16.3 µM (inactive) | 7.21 µM (inactive)
5 | CCCN(CCCCC(NC(C)=O)C(=O)NCc1ccccc1)C(=O)N(CCCl)N=O (stereo not drawn) | 19.3 µM (inactive) | > 100 | > 82.2 µM (inactive) | > 79.8 µM (inactive) | > 100 µM (inactive) | > 100 µM (inactive) | > 100 µM (inactive) | > 100 µM (inactive) | 66.1 µM (inactive) | 8.55 µM (inactive) | 25.8 µM (inactive) | 36.3 µM (inactive) | > 100 µM (inactive) | > 100 µM (inactive) | 22.3 µM (inactive) | 22.9 µM (inactive) | 9.46 µM (inactive) | > 100 µM (inactive) | 27.2 µM (inactive) | > 90.2 µM (inactive)
6 | Oc1cc(-c2cccc(F)c2)nc2cc3c(cc12)OCO3 | 0.0241 µM (active) | 0.0711 | 0.029 µM (active) | 0.0513 µM (active) | 0.0236 µM (active) | 0.0341 µM (active) | 0.0698 µM (active) | 0.0112 µM (active) | 0.0546 µM (active) | 0.0573 µM (active) | 0.119 µM (active) | 0.136 µM (active) | 0.345 µM (active) | 0.0222 µM (active) | 0.0313 µM (active) | 0.0692 µM (active) | 0.115 µM (active) | 0.879 µM (active) | 0.0524 µM (active) | 0.0743 µM (active)
7 | N#Cc1c(C#N)c(-c2ccco2)n(/N=C/c2ccco2)c1N | 26.1 µM (inactive) | 29.6 | > 100 µM (inactive) | > 100 µM (inactive) | > 100 µM (inactive) | > 100 µM (inactive) | 43.3 µM (inactive) | > 100 µM (inactive) | 19.9 µM (inactive) | 23.9 µM (inactive) | > 100 µM (inactive) | 94.6 µM (inactive) | > 100 µM (inactive) | > 100 µM (inactive) | > 100 µM (inactive) | 83.4 µM (inactive) | 28.2 µM (inactive) | 96.6 µM (inactive) | 39 µM (inactive) | > 100 µM (inactive)
8 | Cc1cc(S(=O)(=O)/N=C(\NN)Nc2ccc(Cl)cc2)c(S)cc1Cl | 3.76 µM (inactive) | 1.14 | 16 µM (inactive) | 19.9 µM (inactive) | 19.3 µM (inactive) | 2.85 µM (inactive) | 23 µM (inactive) | 8.02 µM (inactive) | 28.6 µM (inactive) | 14.1 µM (inactive) | 3.06 µM (inactive) | 2.75 µM (inactive) | 1.81 µM (inactive) | 12.4 µM (inactive) | 6.27 µM (inactive) | 13.9 µM (inactive) | 15.6 µM (inactive) | 21.3 µM (inactive) | 4.35 µM (inactive) | 13.4 µM (inactive)
9 | CCN1c2nc3ccccc3nc2N(CC)c2nc3ccccc3nc21 | 12.8 µM (inactive) | 34.1 | 49.5 µM (inactive) | 55.8 µM (inactive) | > 10 µM (inactive) | 39.5 µM (inactive) | > 100 µM (inactive) | 42.3 µM (inactive) | 55.5 µM (inactive) | 25.8 µM (inactive) | 39.1 µM (inactive) | 41.8 µM (inactive) | > 100 µM (inactive) | 41.2 µM (inactive) | 34.7 µM (inactive) | > 100 µM (inactive) | 32.1 µM (inactive) | 52.6 µM (inactive) | 65.8 µM (inactive) | 82.2 µM (inactive)
10 | CCOC(=O)NN(C(=O)OCC)c1c(C)cc(C)cc1C | > 100 µM (inactive) | > 100 | > 100 µM (inactive) | > 100 µM (inactive) | > 100 µM (inactive) | > 100 µM (inactive) | > 100 µM (inactive) | > 100 µM (inactive) | 21 µM (inactive) | > 100 µM (inactive) | – | > 100 µM (inactive) | > 100 µM (inactive) | > 100 µM (inactive) | > 100 µM (inactive) | 95.3 µM (inactive) | > 100 µM (inactive) | > 100 µM (inactive) | > 100 µM (inactive) | > 100 µM (inactive)
11 | CCCCCCCCCCCCC(O)[C@H]1CC[C@H](C(O)CCCCCC(=O)CCCCC2CC(C(C)=O)C(=O)O2)O1 (stereo partly drawn) | 0.0264 µM (active) | 8.18 | 3.94 µM (inactive) | 17.1 µM (inactive) | 1.16 µM (inactive) | 8.77 µM (inactive) | 9.68 µM (inactive) | 8.34 µM (inactive) | 7.6 µM (inactive) | 14.1 µM (inactive) | 7.29 µM (inactive) | – | 18.4 µM (inactive) | 4.25 µM (inactive) | 2.12 µM (inactive) | 2.08 µM (inactive) | 12.3 µM (inactive) | 14.1 µM (inactive) | > 43.6 µM (inactive) | 6.3 µM (inactive)
